Reference: patent publication US20220287935A1, “CANNABINOID-CONTAINING SKIN CARE COMPOSITIONS” (Cannasmetics Ltd., priority 2021, published 2022)

Assays:
[1] = Viability of THP-1 cells, MTT assay; format: cell-based, Human; details: human, THP-1 cells (monocytes); for viability at 24 h: CBD and CBG alone, treatments reported with the IL6 data, read-out: viability levels
Protocol: (§1) Cell lines were cultured according to standard mammalian tissue culture protocols and sterile technique. Human monocytes THP-1 cells were cultured in RPMI medium 1640. HaCaT cells were cultured in DMEME medium. All media was supplemented with 10% fetal bovine serum, streptomycin ([…]), penicillin (100 U/ml) and Nystatin (12.5 U/ml). Cells were incubated in 5% CO2 at 37° C. All tissue culture cells were maintained in 75 cm^2 cell culture treated flask (Eppendorf) and all the media and supplements were obtained from Biological Industries. Treatment were performed by plating cells in a 96 micro well delta surface plates (Eppendorf) in a starting confluence of 1×10^4 cells/well.
(§2) The viability of the cells following treatment was determined using a commercially available MTT assay kit (Abcam, ab146345) and performed according to manufacturer's instructions. Briefly, cells were seeded in a 96-well plate at a density of 1×10^4 cells/well (n=4) in 100 μl cell specific media. After overnight incubation, cells were exposed to varying concentrations of isolated components (CBD, CBG and PSO, each alone) and combination samples as described in Example 1, in 100 μl of specific media, by adding a stock solution to the medium in amount that provides the indicated concentration (see, Tables 1, 2A and 2B). Then, plates were incubated in a humidified atmosphere containing 5% CO2 in air at 37° C. for 24 hours. According to the MTT standard protocol, after 24 hours treatment, the media was removed, and all cells were incubated with serum-free media containing 0.5 mg/ml MTT for 4 hours at the incubator. The MTT purple crystals formed by the viable cells were dissolved using isopropanol containing 0.04 mol/L HCl. The quantification was determined by measuring the optical density at 570 nm in a spectrophotometer reader (Spark, Tecan). Results are presented as proportional viability (%) by comparing between treated and untreated groups.
(§3) Cytotoxic potential of an extract was determined according to the following criteria:
(§4) Cytotoxic: Viability is reduced to less than 70% of vehicle control.
(§5) Non-cytotoxic: Viability is >70% of vehicle control

[2] = test system: THP-1 cells; experiment: Viability of THP-1 cells, MTT assay; format: cell-based, Human; details: 24 hours
Protocol: as §1, §2, §3, §4, §5

[3] = test system: TNFα secretion from LPS-stimulated THP-1 cells; experiment: TNFα secretion from LPS-stimulated THP-1 cells (HTRF); format: cell-based, Human; details: for ratio of TNFα secretion to cells viability: alone; for TNFα secretion (percentage of the control): each alone, highest concentration, FIG. 2A
Protocol: (§6) Human THP-1 monocytes were seeded in a 96-well plate (Eppendorf) at a density of 3×10^5 cells/well (n=4) in 100 μl cell specific media and was differentiated using phorbol-12-myristate 13-acetate (PMA) (Sigma-Aldrich) at a final concentration of 200 nM. PMA supplemented media was removed after 72 hours. Cells were then washed twice with PBS and rested in fresh PMA-free media for further 24 hours in order to obtain phenotypic characteristics of macrophages (Daigneault et al., 2010, PLoS One, 5, e8668).
(§7) After 24 hours, cells were stimulated by Lipopolysaccharides (LPS) at a final concentration of 1μg/ml and were treated with the samples using specific media containing 5% FBS (100 μL of media solution containing the tested materials at the indicated concentration; see, Example 1).
(§8) After 24 hours, the cells supernatants were harvested and diluted up to 5 times in working media to avoid the hook effect. HTRF assays were performed in white 96-well plate (CisBio Bioassays) with a total working volume of 20 μL. All HTRF reagents were purchased from CisBio Bioassays and reconstituted according to the supplier protocols. For each assay 16 μL of diluted supernatants samples were incubated with 4 μL mixed solution containing donor and acceptor antibodies. Antibodies for the detection of TNFα and IL6 were used.
(§9) After 2 hours incubation, HTRF signals were measured using SPARK® multimode microplate reader with an excitation filter at 320 nm and fluorescence wavelength measurement at 620 and 665 nm, an integration delay of 60 μs and an integration time of 400 μs. Results were analyzed with a two-wavelength signal ratio: [intensity (665 nm)/intensity (620 nm)]*104. Calculation and analysis of cytokines release was performed according to the supplier protocols and using the 4PL 1/Y2 formula in GraphPad Prism software.

[4] = test system: IL6 secretion from LPS-stimulated THP-1 cells; experiment: IL6 secretion from LPS-stimulated THP-1 cells (HTRF); format: cell-based, Human; details: alone
Protocol: as §6, §7, §8, §9

[5] = test system: HaCaT cells; experiment: Viability of HaCaT cells, MTT assay; format: cell-based; details: alone, FIG. 8A
Protocol: as §1, §2, §3
Cytotoxic: Viability is reduced to less than 70% of vehicle control. […]

[6] = test system: HaCaT cells; experiment: Cellular ROS production from HaCaT cells in the presence of H2O2 (DCFDA assay); format: cell-based; details: each component alone, 5 hours, FIG. 9A
Protocol: Cellular ROS production was measured using a DCFDA assay kit (Abcam, ab113851)) according to the manufacturer's protocol. DCFDA (2′,7′-dichlorofluorescein diacetate), a cell-permeable fluorogenic dye, is deacetylated to a non-fluorescent compound by cellular esterases and later oxidized into highly fluorescent DCF (2′,7′-dichlorofluorescein) by ROS, allowing measurement of hydroxyl, peroxyl and other ROS activity within the cell.
HaCaT cells were seeded at a density of 2.5×10^4 for 24 hours on 96-well plates. After 24 hours, the cells were washed twice with 1× buffer assay and then incubated with 25 μM DCFDA in 1× buffer assay in a 37° C. incubator for 45 minutes. After two washes with 1× buffer assay, the cells were exposed to the tested samples and to 0.25 M H202, each added separately to the medium.
Cell fluorescence in the 96-well plates was measured at 488 nm excitation and 525 nm emission using a Tecan spark plate reader (Tecan US, Inc. Morrisville, NC), 5 hours after the addition of the tested samples or sample combinations.
The control used as reference are cells treated only with H2O2. The results are shown as percentage of the control.

[7] = alone, reported with the TNFα data
[8] = each component alone, all tested concentrations, FIG. 1A-B

| SMILES | viability at 24 h [1] [%] | viability at 24 h, 20 µM [1, 7] [%] | THP-1 cells viability [2, 8] | ratio of TNFα secretion to cells viability ([3]; 20 μM) | ratio of TNFα secretion to cells viability ([3]; medium concentration, FIG. 2B) | TNFα secretion (percentage of the control) [3] | ratio of IL6 secretion to cells viability ([4]; 40 μM) | ratio between IL-6 secretion and viability ([4]; highest concentration, FIG. 5B) | toxicity to keratinocyte cells ([5]; only at a high concentration) | ROS production from HaCaT cells, effect relative to the solvent (ethanol) [6] | viability at 24 h, 10 µM ([1]; alone, 10 μM, reported with the TNFα data) [%] | THP-1 cells viability ([2]; 20 μM, FIG. 1A) | ratio of TNFα secretion to cells viability ([3]; 10 μM) | ratio of TNFα secretion to cells viability ([3]; lowest concentration, FIG. 2B) | ratio of IL6 secretion to cells viability ([4]; lowest tested concentration of 10 μM) | toxicity to keratinocyte cells ([5]; high concentration, e.g. 40 μM) | viability of HaCaT cells (toxicity) ([5]; higher concentration) |
| --- | --- | --- | --- | --- | --- | --- | --- | --- | --- | --- | --- | --- | --- | --- | --- | --- | --- |
| CCCCCc1cc(O)c(C/C=C(\C)CCC=C(C)C)c(O)c1 [CBG, cannabigerol] | > 140 | 140 | enhanced viability | about 0.6 | lowest ratio | elevation of TNFα secretion | 0.29 | high reduction of the ratio | mild toxicity | very mild effect | – | – | – | – | – | – | – |
| C=C(C)[C@@H]1CCC(C)=C[C@H]1c1c(O)cc(CCCCC)cc1O [CBD, cannabidiol] | > 140 | 140 | enhanced viability | about 0.6 | – | elevation of TNFα secretion | – | – | – | very mild effect | 140 | most pronounced effect | about 0.6 | lowest ratio | 0.23 | toxic | toxic |
